Assay results: patent publication US10500301B2, “Agent for salting out active principles in dressings containing at least one of fatty substance” (URGO RECHERCHE INNOVATION ET DEVELOPPEMENT, priority 2007, dated 2019)

Key:
[1] = system: normal human dermal fibroblasts (NHDF) R9PF2; experiment: Effect of dressings on fibroblast cultures (MTT test, tritiated thymidine incorporation); type: cell-based; settings: releasing agent in dressings
Experimental: • Type: pool of normal human dermal fibroblasts (NHDF) R9PF2 • Culture: 37° C., 5% CO2 Culture Medium: • DMEM (Dulbecco's Modified Eagle Medium, Invitrogen 21969035) • 2 mM L-glutamine (Invitrogen 25030024) • 50 UI/ml penicillin, 50 μg/ml streptomycin (Invitrogen 15070063) • 10% fetal calf serum (v/v, Invitrogen 10270098). Products Tested:
Dressings according to examples 1 and 23 were cut to the size of the wells and tested.
The fibroblasts were seeded at confluence in a 12-well plate.
Pieces of each dressing were cut to a size of 1.4 cm×1.4 cm (i.e. 1.96 cm^2), applied to the surface of the fibroblasts and held in place using a plug. A control without dressing but with a plug, and also a control without dressing and without plug were carried out.
The cells were then incubated for 48 hours, 96 hours and 168 hours (7 days) at 37° C. and 5% CO2. For each incubation time, the metabolic activity was measured using a standard MTT test, which accounts for the mitochondrial dehydrogenases activity. Tritiated thymidine ([methyl-3H]-thymidine, Amersham TRK 686 2.5 μCi/ml final concentration) was added during the last 24 hours of incubation, and then the DNA of the cells of the cell layers was extracted and purified and the radioactivity incorporated into the DNA was counted using a scintillation counter.
All experiments were carried out in triplicate. […]

[2] = Release of the active substance from interface dressings into physiological saline solution, HPLC assay; type: physicochemical; settings: Sepinov EMT 10 versus Montanox 80 as releasing agent in interface dressings, irrespective of the active substance
Experimental: In the case of interface dressings, prepared from the masses of examples 1 to 4 and 13 to 18, samples of 25 cm^2 of dressing (cut with a calibrated punch and precisely weighed) were introduced into an Erlenmeyer flask containing 10 ml of physiological saline solution. The glassware, hermetically sealed, was placed in an incubator at 37° C. for 24 h. The supernatant was removed and filtered. The amount of active substance was assayed by HPLC (high performance liquid chromatography) according to the methods described below.
The following conditions for assaying by high performance liquid chromatography (HPLC) were used: […]
The detection threshold for the potassium sucrose octasulfate was 0.06 mg/ml. When no peak was detected, the result was increased by the detection threshold. […]
The detection threshold for the silver sulfadiazine was 0.0006 mg/ml. When no peak was detected, the result was increased by the detection threshold.
• A calibration straight line was plotted using the calibration points, and the equation of the straight line y=ax+b (r^2>0.999), in which y=surface area under the peak x=concentration of the standard (in mg/ml) r^2=determination coefficient, was calculated. • The content of potassium sucrose octasulfate or silver sulfadiazine (x) was calculated. […]
The percentage of release of the active substance is calculated according to the following formula: […]

## polysorbate 80
[1]
  Effect on fibroblasts (toxicity / proliferation), in words: exhibits toxicity with respect to these cells
[2]
  Release of the active substance with the releasing agent, comparison in words: substantially the same release of the active substance
